From patent US10786450B2, “Process for preparing a dry powder formulation comprising an anticholinergic, a corticosteroid and a beta-adrenergic” (CHIESI FARMACEUTICI S.p.A., priority 2017, dated 2020)

Experiments:
[1] = Aerosol performance by Next Generation Impactor (NGI) from multidose dry powder inhaler; assay type: physicochemical; conditions: Example 3 powder formulation; for Mid Fine particle Fraction: 2.0 to 5.0 microns; for Delivered Dose: multidose DPI of WO 2004/012801, 3 doses; for Mid Fine Particle Mass: particle size between 2.0 and 5.0 microns; for Fine Particle Mass: particle size equal to or lower than 5.0 microns; for Fine Particle Fraction: ratio fine particle mass to delivered dose
Description: After aerosolization of 3 doses from the inhaler device, the NGI apparatus was disassembled and the amounts of drug deposited in the stages were recovered by washing with a solvent mixture and then quantified by High-Performance Liquid Chromatography (HPLC). […] (v) the fine particle fraction (FPF) which is the ratio between the fine particle mass and the delivered dose; and (vi) the MMAD.

[2] = micronized active ingredient as used in Example 3
Description: The size of the particles active is determined by measuring the characteristic equivalent sphere diameter, known as volume diameter, by laser diffraction.
Microparticles as obtained in Example 2 were used. […] Beclometasone dipropionate (BDP) having the following particle size was used: d(v0.1)=0.7 micron; d(v0.5)=1.5 micron; and d(v0.9)=2.8 micron.

| SMILES | Extrafine Particle Fraction <1 μm [1] [%] | Extrafine Particle Fraction <2 μm [1] [%] | Extrafine Particle Mass <1 μm [1] [µg] | Extrafine Particle Mass <2 μm [1] [µg] | MMAD [1] [μm] | Mid Fine particle Fraction [1] [%] | Delivered Dose [1] [µg] | Mid Fine Particle Mass [1] [µg] | Fine Particle Mass [1] [µg] | Fine Particle Fraction [1] [%] | d(v0.1) [2] [micron] | d(v0.5) [2] [micron] | d(v0.9) [2] [micron] |
| --- | --- | --- | --- | --- | --- | --- | --- | --- | --- | --- | --- | --- | --- |
| C[N+]1(C)CCC(OC(=O)C(O)(c2ccccc2)C2CCCC2)C1 (racemic) [GB, glycopyrronium bromide] | 9.8 | 26.4 | 1.1 | 2.9 | 1.9 | 21.6 | 11.1 | 2.4 | 5.4 | 48.1 |  |  |  |
| CCC(=O)OCC(=O)[C@@]1(OC(=O)CC)[C@@H](C)C[C@H]2[C@@H]3CCC4=CC(=O)C=C[C@]4(C)[C@@]3(Cl)[C@@H](O)C[C@@]21C [BDP, beclometasone dipropionate] | 13.9 | 32.1 | 12.4 | 28.5 | 1.6 | 17.1 | 88.5 | 15.2 | 43.6 | 49.3 | 0.7 | 1.5 | 2.8 |
